According to patent US9206125B2, “Use of compound binding to mSin3B that specifically binds to neuron restrictive silencer factor (NRSF)” (PUBLIC UNIVERSITY CORPORATION YOKOHAMA CITY UNIVERSITY, priority 2010, dated 2015):

How the values were obtained:
[1] = test system: DAOY (human medulloblastoma cell strain); test: MTT assay, growth inhibition against human medulloblastoma cells (Example 3); format: cell-based; parameters: dose or concentration left out as unconfirmed; conditions: final concentration 200
Description: Compounds: No. 5, No. 15, No. 23, NCR 6, NCR 7, NCR 11, NCR 13, NCR 14, NCR 15
Cell: DAOY (human medulloblastoma cell strain)
(§1) Medium: DMEM (High Glucose, Nacalai Tesque)
Reagent for cell counting: MTT cell counting kit (Nacalai Tesque) *Hereinafter, referred to as MTT assay.
DAOY was plated on three 96-well plates at 5×10^3 cells/well. These three plates were for use on day 0, day 1 and day 3, respectively. As a medium, 10% FBS-containing DMEM was used.
The medium in the plate for day 0 was exchanged with 5% FBS-containing DMEM, and cells were cultured therein for 30 minutes. Then, MTT assay was carried out to measure the activity at the basal cell count.
With respect to the plates for day 1 and day 3, the medium was exchanged with 5% FBS-containing medium, and the compound was added simultaneously at this time (as a control, DMSO (the solvent) alone was added).
MTT assay was carried out using the plate for day 1.
MTT assay was carried out using the plate for day 3.
Relative growths on day 1 and day 3 were calculated, with the average of MTT activities (Ab 570 nm) […] in the rows of wells for the respective compounds being taken as 100. Each experiment was performed in quadruple.
Statistical test was performed by compound-treated cells and DMSO-treated cells.

[2] = test system: neuropathic pain model by partial sciatic nerve ligation; test: Electrical stimulation-induced paw withdrawal (EPW) test, hypoesthesia after nerve injury; format: in vivo, C57BL male mice; conditions: 0.5 nmol i.t. once per day from 3 days after nerve injury; observed 4 and 5 days after injury
[3] = test system: neuropathic pain model by partial sciatic nerve ligation; test: Thermal paw withdrawal test, morphine resistance after nerve injury; format: in vivo, C57BL male mice; conditions: compound 0.5 nmol i.t. from 3 days after injury; morphine 30 nmol i.pl. 5 days after injury
[4] = test system: DAOY (human medulloblastoma cell strain); test: MTT assay using a human medulloblastoma cell strain (Example 2, relative growth); format: cell-based; conditions: DAOY cells
Source text: Cell growth effects were examined on 3,5-dimethylpiperidyl 3-methyl-4-nitrophenyl ketone (compound 155) and 1-[4-(difluoromethoxy)phenyl]-2-(3,5-dimethylpiperidyl)ethan-1-one (compound A28) (MTT assay using a human medulloblastoma cell strain).
Compounds: 3,5-dimethylpiperidyl 3-methyl-4-nitrophenyl ketone (compound 155) (purchased from SPECS); 1-[4-(difluoromethoxy)phenyl]-2-(3,5-dimethylpiperidyl)ethan-1-one (compound A28) (purchased from Enamine)
Cell: DAOY (human medulloblastoma cell strain) (provided by Kanno, Department of Neurosurgery, School of Medicine, Yokohama City University)
as §1
Reagent for cell counting: MTT cell counting kit (Nacalai Tesque) MTT Assay: (operations)
Day −1: DAOY was plated on three 96-well plates at 5×10^3 cells/well. These three plates were for use on day 0, day 1 and day 3, respectively. As a medium, 10% FBS-containing DMEM was used.
Day 0: MTT assay was carried out using the plate for day 0 to measure the activity at the basal cell count. With respect to the plates for day 1 and day 3, the compound was added to give a concentration of 100 μg/ml (as controls, DMEM alone and DMEM containing DMSO (solvent) were used). Specifically, the compound-containing DMEM was prepared in advance, and the compound was added to the plate through medium exchange. At this time, FBS concentration was lowered to 5% in order to prevent the masking of the compound's effect due to excessive growth signals. Day 1: MTT assay was carried out using the plate for day 1. Day 3: MTT assay was carried out using the plate for day 3. Data Analysis: Relative growths on day 1 and day 3 were calculated, with the average of MTT activities (Ab 570 nm) on day 0 in the rows of wells for addition of the respective compounds being taken, as 100.
Each experiment was performed in quadruple and each run was repeated three times. Relative values based on the values of day 0 were used to calculate data for n=12 wells and statistical tests were performed.
Test was by t-test between the cell count with DMEM alone and the cell count with the compound or DMSO.
MIT Assay: A technique for cell counting using the respiratory activity of mitochondria as an indicator. When the respiratory activity is high (the value at Ab 570 nm is high), it can be interpreted that the cell count is large.

Nav 1.8 = test: Quantitative real time PCR of Nav 1.8 mRNA in dorsal root ganglia after nerve injury; format: in vivo, C57BL male mice; conditions: 0.5 nmol i.t., single administration 3 days after nerve injury
MOP = test: Quantitative real time PCR of MOP mRNA in dorsal root ganglia after nerve injury; format: in vivo, C57BL male mice; conditions: 0.5 nmol i.t., single administration 3 days after nerve injury; 3, 6 and 12 hours after administration; n=3; tendency
[5] = Day 0, basal cell count before compound addition
[6] = Day 1, compound 100 μg/ml, 5% FBS DMEM

Row | melting point [°C] | Structure (SMILES) | also measured
1 |  | Cc1cc(CN2CC(C)CC(C)C2)ccc1[N+](=O)[O-] (stereo not drawn) [NCR 7, 3,5-Dimethyl-1-(3-Methyl-4-Nitrobenzyl)piperidine] | cytotoxicity (MTT assay) [1]: cytotoxicity was observed
2 | 120 to 125 | CC1CC(C)CN(C(=O)c2ccc([N+](=O)[O-])cc2)C1 (stereo not drawn) [NCR-2, 3,5-Dimethyl-1-(4-Nitrobenzoyl)piperidine] | 
3 | 82 to 82.8 | Cc1cc(C(=O)N2CCCC(C)C2)ccc1[N+](=O)[O-] (stereo not drawn) [NCR-3, 3-Methyl-1-(3-Methyl-4-Nitrobenzoyl)piperidine] | 
4 | 70.2 to 71.3 | CC1CCCN(C(=O)c2ccc([N+](=O)[O-])cc2)C1 (stereo not drawn) [NCR-4, 3-Methyl-1-(4-Nitrobenzoyl)piperidine] | 
5 | 107.2 to 108.7 | CC1CC(C)CN(C(=O)c2ccccc2)C1 (stereo not drawn) [NCR-6, 1-(Benzoyl)-3,5-Dimethyl piperidine] | 
6 | 71.7 to 72.2 | Cc1cc(C(=O)N2CCCCC2)ccc1[N+](=O)[O-] [NCR-8, 1-(3-Methyl-4-Nitrobenzoyl)piperidine] | 
7 | 74.5 to 76 | CCN(CC)C(=O)c1ccc([N+](=O)[O-])c(C)c1 [NCR-9, N,N-Diethyl-3 Methyl-4-Nitrobenzamide] | 
8 | 113.5 to 115.4 | CC1CC(C)CN(C(=O)c2ccc(Cl)cc2)C1 (stereo not drawn) [NCR-11, 3,5-Dimethyl-1-(4-Chlorobenzoyl)piperidine] | 
9 | 132.7 to 138.5 | Cc1cc(S(=O)(=O)N2CC(C)CC(C)C2)ccc1[N+](=O)[O-] (stereo not drawn) [NCR-12, 3,5-Dimethyl-1-[(3-Methyl-4-Nitrophenyl)sulfonyl]piperidine] | 
10 | 107.6 to 109.7 | Cc1cc(C(=O)N(C(C)C)C(C)C)ccc1[N+](=O)[O-] [NCR-15, N,N-Diisopropyl-3-Methyl-4-Nitrobenzamide] | 
11 | 99.7 to 100.5 | Cc1cc(C(=O)N2C(C)CCCC2C)ccc1[N+](=O)[O-] (stereo not drawn) [NCR-17, 2,6-Dimethyl-1-(3-Methyl-4-Nitrobenzoyl)piperidine] | 
12 | 105.8 to 108.7 | Cc1cc(C(=O)N(Cc2ccccc2)Cc2ccccc2)ccc1[N+](=O)[O-] [NCR-18, N,N-Dibenzyl-3-Methyl-4-Nitrobenzamide] | 
13 | 61.3 to 61.9 | Cc1cc(C(=O)N2CCCC2)ccc1[N+](=O)[O-] [NCR-19, 1-(3-Methyl-4-Nitrobenzoyl)pyrrolidine] | 
14 | 134.2 to 141 | Cc1cc(C(=O)NC2CCCCC2)ccc1[N+](=O)[O-] [NCR-22, N-Cyclohexyl-3-Methyl-4-Nitrobenzamide] | 
15 |  | CC(C)CCNC(=O)CCC(=O)NCc1ccc(F)cc1 [compound 106, N-[(4-fluorophenyl)methyl]-N′-(3-methylbutyl)butane-1,4-diamide] | effect on hypoesthesia (pain threshold in response to C-fiber stimulation), EPW test [2]: no effect on pain threshold; peripheral morphine analgesia after nerve injury, thermal paw withdrawal test [3]: morphine analgesia was hardly recognized
16 |  | Cc1cc(C(=O)N2CC(C)CC(C)C2)ccc1[N+](=O)[O-] (stereo not drawn) [compound 155, 3,5-dimethylpiperidyl 3-methyl-4-nitrophenyl ketone] | Relative Growth (MTT activity, Ab 570 nm, day 0 average taken as 100) [4, 5]: 100.00 ± 5.08; Relative Growth (MTT activity, Ab 570 nm, day 0 average taken as 100) [4, 6]: 123.16 ± 10.03; Relative Growth (MTT activity, Ab 570 nm, day 0 average taken as 100) ([4]; Day 3, compound 100 μg/ml, 5% FBS DMEM): 105.07 ± 17.53
17 |  | CC1CC(C)CN(CC(=O)c2ccc(OC(F)F)cc2)C1 (stereo not drawn) [compound A28, 1-[4-(difluoromethoxy)phenyl]-2-(3,5-dimethylpiperidyl)ethan-1-one] | Relative Growth (MTT activity, Ab 570 nm, day 0 average taken as 100) [4, 5]: 100.00 ± 6.56; Relative Growth (MTT activity, Ab 570 nm, day 0 average taken as 100) [4, 6]: 233.28 ± 1.69; time needed for the effect on Nav 1.8 and MOP expression to appear (Nav 1.8): 3 to 6 h; recovery of the lowering of expression of Nav 1.8 after nerve injury (Nav 1.8; 3, 6 and 12 hours after administration, n=3, tendency): 10-15%; recovery of the lowering of expression of MOP after nerve injury (MOP): 10-15%
